We go through seven molecules from patent US20040138826A1, “Experimental design and data analytical methods for detecting and characterizing interactions and interaction thresholds on fixed ratio rays of polychemical mixtures and subsets thereof” (priority 2002, published 2004).

One data set deals with female CD-1 mice. Nature of the data set: Liver damage by serum sorbitol dehydrogenase (SDH) after 14 days oral gavage of trihalomethane DBPs. Particulars: for Estimate of slope parameter γi, additivity model for SDH response: generalized linear model with power link, λ = 0.5, single chemical data only, female CD-1 mice, 14 days oral gavage; for Mean SDH (STD): positive control. As to the method:
The mixture selected for the study used to illustrate the methodology proposed here is that of four trihalomethanes formed as disinfection by-products (DBPs) when water is chlorinated. […] The endpoint of interest is liver damage, as measured by serum sorbitol dehydrogenase (SDH) levels in female CD-1 mice after 14 days of exposure by oral gavage. Seven separate experiments were conducted: four single chemical studies and three mixture studies. A more complete description of the experimental methods is provided in Gennings, et al. (1997; 2000). […] The fixed mixing ratio of interest is associated with the chlorination process of disinfection (McDonald et al., 1999). The purpose of this study was to determine if the four DBPs combine additively, i.e., with no interaction.
The data used to illustrate the methodology developed in the following sections involves the combination of four chemicals, which are disinfection by-products in drinking water. Summary statistics for the single chemical data are provided in Gennings et al. (1997, 2000). A generalized linear model with a power link function, [formula]
After the single chemical studies were completed, three mixture studies were conducted. […] In order to verify that the dose-response relationship was consistent across the different studies, the additivity model given in (1) was used to predict the response for each of the positive control groups. […] The p-value is associated with the Wald-type test for equivalence of the two means.
The objective of this paper is to develop a method for testing for departure from additivity when the single chemical data cannot be used to describe the no interaction case. The mixture data of interest are assumed to result from a fixed-ratio ray design.

The subject of data set [1] is normal human epidermal keratinocytes (NHEK). Particulars: for LD50 (estimated): Example 6; for LD50 (50% cell killing in individual cytotoxicity assays): predetermined, Example 5; for Sample Mean (% viability): single metal, 24 hr. As for the experimental part:
Cells and culture conditions. Cryopreserved, pooled normal human epidermal keratinocytes (NHEK) were purchased from the Clonetics Corp. (San Diego, Calif.). NHEK cells were grown in defined Keratinocyte Growth Medium-KGM™ (Clonetics).
Cytotoxicity analyses. For toxicity studies, cells were plated at a density of 2,500 cells/cm^2 in 6-well plastic tissue culture plates and grown for 24 hr before metal treatment. Triplicate wells of cells were treated with increasing concentrations of As, Cr, Cd, Pb, or a mixture of the four metals for 24 hr. Concentrations used for As and Cr were 0.3, 1, 3, 10 , and 100 mM. The Cr stock was made by mixing a 1:1 ratio of trivalent and hexavalent chromium. Cd and Pb were administered at 3, 10, 30, 100, and 300 mM. […] The concentrations of these three metals in the 1× mixture solution was 7.7 mM As, 4.9 mM Cr, 6.1 mM Cd. […] This 1× solution was serially diluted at a 1:3 ratio to get 0.333, 0.111, 0.037, 0.0123, 0.004, and 0.0014 dilution groups. Double deionized water was used as the vehicle control in all cases. After exposure to the individual metals or metal mixture, cells were refed with fresh metal-free KGM medium and incubated for 3 days prior to viability analysis by the MTT assay.
MTT assay. The MTT assay was carried out using a modification of the method of Mosmann (1983). MTT was dissolved at 5 mg/ml in 1× PBS [phosphate-buffered saline]. This stock solution was filtered through a […] and stored at 4° C. Immediately before use, the stock solution was diluted to 0.5 mg/ml with serum-free KGM to make a working solution. Working solution (1 ml) was added to each well of cells after aspiration of medium. Cells were incubated at 37° C. for 3 hr, after which time, the MTT was removed by aspiration. Cells were subsequently lysed by addition of 0.5 ml of dimethyl sulfoxide (DMSO). The absorbence at 550 nm of samples as well as a DMSO blank was read on a Microplate Autoreader (Bio-Tek Instruments, Inc, Winooski, Vt.). The absorbance of the DMSO blank was subtracted from all values. All absorbance values were standardized to the water vehicle control.
The methodology introduced in this paper is illustrated with cytotoxicity data obtained from assessing interactions among arsenic (As), cadmium (Cd), chromium (Cr), and lead (Pb) in human keratinocytes. The experimental data were obtained from Ray Yang and colleagues at Colorado State University. The endpoint of interest is the percent viability of treated NHEK cells using the MTT assay. […] This 1× solution was serially diluted at a 1:3 ratio to get 0.333, 0.111, 0.037, 0.0123, 0.004, and 0.0014 dilution groups. Double deionized water was used as the vehicle control in all cases.
After exposure to individual metals or metal exposure, cells were refed with fresh metal-free KGM medium and incubated for 3 days prior to viability analysis by the MTT assay. Details of the experimental protocol and methods are described elsewhere (24, 1) and are not included here.

The mark [2] stands for this setting: 1.52 mM/kg, mixture study = 0.05 total dose.
Setting [3] is: 1.52 mM/kg, mixture study = 1.5 total dose.
[4] abbreviates: 1.52 mM/kg, mixture study = 3.0 total dose.

Read-outs that look alike come from different tables or passages of the source.

Turning to `BrC(Br)Br` [CHBr3, bromoform], in the data set with female CD-1 mice, the “Estimate of slope parameter γi, additivity model for SDH response” value (shortened to “Estimate of slope parameter γi”) is reported as 2.441. Moreover, the “Mean SDH (STD)” value in the data set on female CD-1 mice (setting [2]) is on record as 64.0 (27.8); in the data set on female CD-1 mice (setting [3]), 56.0 (24.8); with female CD-1 mice (setting [4]), 86.4 (89.2).
With `ClC(Br)Br` [CDBM, chlorodibromomethane], the “Estimate of slope parameter γi” value in the data set on female CD-1 mice is recorded as 3.833. In addition, the “Mean SDH (STD)” value is given as 38.0 (11.2) with female CD-1 mice (0.76 mM/kg, mixture study = 0.05 total dose); 28.1 (6.7) in the data set with female CD-1 mice (0.76 mM/kg, mixture study = 1.5 total dose); 19.3 (3.6) in the data set on female CD-1 mice (0.76 mM/kg, mixture study = 3.0 total dose).
In the case of `[Cl][Cd][Cl]` [Cadmium, cadmium chloride], the “LD50 (estimated)” value in data set [1] is 6.1 µM. The “LD50 (50% cell killing in individual cytotoxicity assays)” value in data set [1] is recorded as 6.1 mM. Besides, the “Sample Mean (% viability)” value in data set [1] (dose 3 (mM)) is on record as 92.6 % viability; in data set [1] (dose 10 (mM)) it was 51.9 % viability; in data set [1] (dose 30 (mM)) it was 20.2 % viability; in data set [1] (dose 100 (mM)), 3.8 % viability; in data set [1] (dose 300 (mM)), 4.6 % viability.
For `ClC(Cl)Br` [BDCM, bromodichloromethane], in the data set on female CD-1 mice, the “Estimate of slope parameter γi” value was 3.567. The “Mean SDH (STD)” value with female CD-1 mice (setting [2]) is reported as 107.3 (97.5); in the data set on female CD-1 mice (setting [3]), 56.0 (17.4); in the data set with female CD-1 mice (setting [4]), 48.8 (23.3).
With `[Cr]` [Chromium], the “LD50 (estimated)” value in data set [1] was 4.9 µM. For the same molecule, the “LD50 (50% cell killing in individual cytotoxicity assays)” value in data set [1] is listed as 4.9 mM. Also, the “Sample Mean (% viability)” value in data set [1] (dose 0.3 (mM)) came to 105.1 % viability; in data set [1] (dose 1.0 (mM)) it was 99.7 % viability; in data set [1] (dose 3 (mM)) it was 79.8 % viability; in data set [1] (dose 10 (mM)) it was 23.9 % viability; in data set [1] (dose 30 (mM)), 6.6 % viability.
For the molecule `ClC(Cl)Cl` [CHCl3, chloroform], the “Estimate of slope parameter γi” value in the data set with female CD-1 mice was 1.538. In addition, the “Mean SDH (STD)” value in the data set on female CD-1 mice (setting [2]) was 63.1 (34.9); with female CD-1 mice (setting [3]), 46.6 (21.5); in the data set with female CD-1 mice (setting [4]), 24.3 (5.8).
For `CC(=O)[O-].CC(=O)[O-].[Pb+2]` [Lead, lead acetate], the “LD50 (estimated)” value in data set [1] is 100 µM. Further, the cell killing entry in data set [1] (individual cytotoxicity assay) was “unable to get complete killing at any dose tested”. For the same molecule, the “Sample Mean (% viability)” value in data set [1] (dose 3 (mM)) was 95.5 % viability; in data set [1] (dose 10 (mM)), 91.0 % viability; in data set [1] (dose 30 (mM)), 98.8 % viability; in data set [1] (dose 100 (mM)), 93.7 % viability; in data set [1] (dose 300 (mM)) it was 28.9 % viability.
